Measured values as given in paper PMC11432795, “Mutagenesis of the Peptide Inhibitor of ASIC3 Channel Introduces Binding to Thumb Domain of ASIC1a but Reduces Analgesic Activity” (Marine Drugs, 2024).
Positions of bridges follow the written chain, without caps; N, C: chain ends. Residues, ends and D or L forms follow the SMILES beside them.

Legend:
[1] = CFA-induced hyperalgesia, von Frey test; format: in vivo, ICR mice; conditions: for increase in paw withdrawal threshold (PWT), significance by dose: 0.002, 0.02, 0.2 mg/kg i.m.
Procedure: In the CFA-induced hyperalgesia test, where CFA administration induces excess sensitivity to mechanical and thermal stimuli, the analgesic effects of peptides were assessed using von Frey filaments of varying forces (von Frey test) and a hot plate apparatus (hot plate test).
(§1) Adult male ICR mice (Animal Breeding Facility Branch of Shemyakin–Ovchinnikov Institute of Bioorganic Chemistry, Russian Academy of Sciences, Pushchino, Russia), weighing 20–25 g, were utilized. Animals were housed under controlled conditions, with a room temperature of 23 ± 2 °C, a 12 h light–dark cycle, and ad libitum access to food and water. Test substances were dissolved in saline. Peptides (Ugr9-1 and A23K at doses of 0.002, 0.02, and 0.2 mg/kg) and saline (for the control group) were administered intramuscularly 60 min prior to testing.
(§2) The abdominal constriction test of visceral pain (acetic acid-induced writhing pain model) and hyperalgesia induced by complete Freund’s adjuvant (CFA-induced inflammatory pain model) were performed as previously described.
For the von Frey filaments test, mice were positioned in a plastic chamber with access to the inflamed hind paw surface and an electronic von Frey filament (BIO-EVF, Bioseb, Vitrolles, France) was applied with gradually increasing pressure until withdrawal. Data, expressed as the strength of the applied mechanical stimulus from three applications, were averaged, with intervals between exposures of at least 1 min.
(§3) Statistical analysis was conducted using analysis of variance (ANOVA) with post hoc Tukey’s test, and data are presented as mean ± standard deviation (S.D.).

[2] = biological target: T1, rat ASIC1a channel (Rattus norvegicus, UniProt P55926); experiment: Two-electrode voltage clamp, rat ASIC1a in X. laevis oocytes; format: cell-based
T1 construct: expressed in transfected cells; host or cells: Xenopus laevis oocytes injected with mRNA made from a pCI-rASIC1a plasmid
T1 sequence (P55926 1-526): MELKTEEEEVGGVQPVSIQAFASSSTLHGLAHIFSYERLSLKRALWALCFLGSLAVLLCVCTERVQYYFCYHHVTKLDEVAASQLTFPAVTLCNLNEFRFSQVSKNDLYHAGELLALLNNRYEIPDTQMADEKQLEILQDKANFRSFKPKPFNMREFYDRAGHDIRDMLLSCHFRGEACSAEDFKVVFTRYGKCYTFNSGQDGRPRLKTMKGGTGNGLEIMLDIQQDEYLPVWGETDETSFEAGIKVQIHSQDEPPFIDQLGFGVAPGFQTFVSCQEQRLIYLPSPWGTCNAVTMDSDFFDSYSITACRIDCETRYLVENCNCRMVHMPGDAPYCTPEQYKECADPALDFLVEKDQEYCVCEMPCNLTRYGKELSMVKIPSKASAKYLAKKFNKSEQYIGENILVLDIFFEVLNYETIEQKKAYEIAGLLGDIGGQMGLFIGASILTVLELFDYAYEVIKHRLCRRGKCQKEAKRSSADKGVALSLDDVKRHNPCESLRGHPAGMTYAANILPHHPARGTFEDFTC
Procedure: Figure 3 The effect of mutant peptides S16K and A23K on rat ASIC1a and ASIC3 channels. […] (B) Dose–response curves for the inhibitory effect of mutant peptides on ASIC1a. Each data point represents data from 5 cells. (C) Representative current traces of Ugr9-1, S16K, and A23K at a concentration of 12.5 µM on ASIC3. […] Each point represents data from 5 cells. The depicted currents were induced by a pH 5.5 stimulus following a conditioning pH of 7.4, with peptides applied for 30 s before the pH stimulus. The holding potential (Vh) was −50 mV, and the time interval between applications ranged from 1 to 2 min. Data are presented as mean ± S.E.M.
A small portion of the ovary was isolated from frogs under anesthesia induced by a 0.17% solution of procaine methanesulphonate (MS222) (Sigma), followed by treatment with collagenase (1 mg/mL) at room temperature for 2 h. Oocytes at stages IV and V, devoid of follicular membranes, were transferred to ND-96 medium (containing 96 mM NaCl, 5 mM HEPES, 2 mM KCl, 1.8 mM CaCl2, 1 mM MgCl2, pH 7.4). mRNA synthesis was performed from pcDNA3.1 vectors (Invitrogen, Carlsbad, CA, USA) containing the rat ASIC3 gene, as well as pCI vectors containing genes for rat ASIC1a, its mutant analogues, and ASIC1b. mRNA (2.5–10 ng) was then injected into the oocytes. For the ASIC1a/3 heteromeric channels, the mRNA encoding the ASIC1a and ASIC3 subunits were injected in a 1:5 ratio, respectively. Subsequently, the oocytes were incubated for 2–3 days at a temperature of 17–19 °C in ND96 medium supplemented with gentamicin and streptomycin (20 µg/mL each).
Whole-cell electrophysiological recordings of ASIC channels were conducted using a two-electrode voltage-clamp setup. Microelectrodes were filled with 3 M KCl. Recordings from oocytes were carried out at a holding potential of −50 mV, with data filtered at 10 Hz and sampled at a rate of 100 Hz using an L780M ADC (LCard, Moscow, Russia). The synchronized delivery of solutions into the chamber and recording of electrophysiological results were carried out using in-house software v.2. Activation of ASIC channels occurred through rapid pH changes in the solution, achieved by replacing the working solution in the chamber with ND96-based solutions at varying pH levels. Specifically, HEPES was substituted with 10 mM MES for pH 5.5–6.5 and MOPS for pH 6.7–7.0.
Fresh peptide solutions were meticulously prepared in ND96 buffer with a pH of 7.43 immediately before experiments, with strict control over the pH levels. Peptides were applied for 30 s at a conditioning pH of 7.43 before acid stimulation of the channel. The interval between applications was maintained at a minimum of 1.5 to 2 min.
Electrophysiological data analysis was conducted using OriginPro 2018 software (OriginLab, Northampton, MA, USA). Dose–response relationships for Ugr9a-1, S16K, and A23K peptides were fitted using a Hill function: F1(x) = A − A/(1 + (x/IC50)^nH), where F1(x) represents the amplitude of the current at concentration x of the peptide, A is the maximum amplitude of the current, IC50 is the half-maximum inhibitory concentration of the peptide, and nH is the Hill coefficient.

[3] = Acetic acid-induced writhing (AAW pain model); format: in vivo, ICR mice; conditions: for reduction of number of writhes, significance by dose: 0.002, 0.02, 0.2 mg/kg i.m.
Procedure: In both the AAW and CFA-induced hyperalgesia, Ugr9-1 and A23K peptides were administered intramuscularly one hour before the experiments at doses of 0.002, 0.02, and 0.2 mg/kg. In the AAW test, analgesic efficacy was evaluated by assessing the reduction in the number of involuntary writhing episodes induced by intraperitoneal injection of a 0.6% acetic acid solution.
as §1, §2, §3

[4] = one hour before testing, 0.6% acetic acid i.p., n = 7

CC[C@H](C)[C@H](N)C(=O)N[C@@H](CO)C(=O)N[C@H](C(=O)N[C@@H](CC(=O)O)C(=O)N1CCC[C@H]1C(=O)N1CCC[C@H]1C(=O)N[C@H]1CSSC[C@@H]2NC(=O)[C@H](CC(N)=O)NC(=O)CNC(=O)[C@H](CO)NC(=O)CNC(=O)[C@H](CC(=O)O)NC(=O)[C@H](CCCNC(=N)N)NC(=O)[C@H](Cc3c[nH]cn3)NC(=O)[C@H](Cc3ccc(O)cc3)NC(=O)[C@H](CSSC[C@@H](C(=O)NCC(=O)N[C@@H](C)C(=O)N[C@H](C(=O)O)C(C)C)NC(=O)CNC(=O)[C@H](Cc3ccc(O)cc3)NC(=O)[C@H](CCCCN)NC(=O)[C@H](CC(=O)O)NC(=O)[C@H](Cc3ccc(O)cc3)NC(=O)[C@H](C(C)C)NC2=O)NC(=O)[C@H](Cc2ccccc2)NC(=O)[C@H](CCCNC(=N)N)NC1=O)[C@@H](C)CC [A23K] (H-ISIDPPCRFCYHRDGSGNCVYDKYGCGAV-OH; disulfide 7-19, 10-26)
increase in PWT compared to Ugr9-1 ([1]; 0.02 mg/kg i.m., versus Ugr9-1): more than three times less effectively than Ugr9-1
increase in paw withdrawal threshold (PWT), significance by dose ([1]; one hour before testing, n = 7): significantly increased PWT only at 0.02 mg/kg
inhibition at 10 µM ([2]; 10 µM, pH 5.5 stimulus, conditioning pH 7.4, peptide 30 s, mean ± SEM, n = 5, read-out: inhibitory effect on wild-type ASIC1a): 74.9 ± 6.5%
activity on ASIC1a compared to S16K ([2]; A23K versus S16K): over three times more active than S16K
Hill slope (nH) ([2]; inhibition of rat ASIC1a, pH 5.5 stimulus, conditioning pH 7.4, mean ± S.E.M., 5 cells): 2.84 ± 0.31
IC50 ([2]; rat ASIC1a, X. laevis oocytes, TEVC, Vh −50 mV, pH 5.5 stimulus, conditioning pH 7.4, peptide 30 s before stimulus, mean ± S.E.M., 5 cells, read-out: half-maximal inhibitory concentration (IC50)): 6.72 µM
reduction of writhing, times less effective than Ugr9-1 ([3]; 0.02 mg/kg i.m., versus Ugr9-1): 1.5 times
reduction of number of writhes, significance by dose [3, 4]: significant reduction in writhing episodes only at a dose of 0.02 mg/kg

CC[C@H](C)[C@H](N)C(=O)N[C@@H](CO)C(=O)N[C@H](C(=O)N[C@@H](CC(=O)O)C(=O)N1CCC[C@H]1C(=O)N1CCC[C@H]1C(=O)N[C@H]1CSSC[C@@H]2NC(=O)[C@H](CC(N)=O)NC(=O)CNC(=O)[C@H](CO)NC(=O)CNC(=O)[C@H](CC(=O)O)NC(=O)[C@H](CCCNC(=N)N)NC(=O)[C@H](Cc3c[nH]cn3)NC(=O)[C@H](Cc3ccc(O)cc3)NC(=O)[C@H](CSSC[C@@H](C(=O)NCC(=O)N[C@@H](C)C(=O)N[C@H](C(=O)O)C(C)C)NC(=O)CNC(=O)[C@H](Cc3ccc(O)cc3)NC(=O)[C@H](C)NC(=O)[C@H](CC(=O)O)NC(=O)[C@H](Cc3ccc(O)cc3)NC(=O)[C@H](C(C)C)NC2=O)NC(=O)[C@H](Cc2ccccc2)NC(=O)[C@H](CCCNC(=N)N)NC1=O)[C@@H](C)CC [Ugr9-1] (H-ISIDPPCRFCYHRDGSGNCVYDAYGCGAV-OH; disulfide 7-19, 10-26)
increase in paw withdrawal threshold (maximum effect) ([1]; 0.02 mg/kg i.m., one hour before testing, n = 7): 270%
increase in paw withdrawal threshold (PWT), significance by dose ([1]; one hour before testing, n = 7): significant increase in paw withdrawal threshold (PWT) at all doses
effect on ASIC1a at 50 µM ([2]; 50 µM, representative current traces, pH 5.5 stimulus, conditioning pH 7.4): lack of effect
activity towards rASIC1a ([2]; pH 5.5 stimulus, conditioning pH 7.4): no activity
inhibition of number of writhes (maximum effect) ([3]; 0.02 mg/kg i.m., one hour before testing, 0.6% acetic acid i.p., n = 7): 30%
reduction of number of writhes, significance by dose [3, 4]: significantly decreased the number of writhes at all three doses
